Results published in article PMC11456916, “A screen for cell envelope stress uncovers an inhibitor of prolipoprotein diacylglyceryl transferase, Lgt, in Escherichiacoli” (iScience, 2024).
Like-named read-outs stand apart in the source and are kept apart here.

What was measured:
[1] = system: 356 CRISPRi constructs in E. coli ΔtolC-pore; assay: CRISPRi collection fitness screen with sub-inhibitory compound; assay type: cell-based; conditions: sub-inhibitory (¼ MIC) concentration, LB agar, basal knockdown
How it was run: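 Mobile CRISPRi collection conjugated into the ΔtolC-pore strain and pinned on agar at 1536 density in technical quadruplicate with a sub-inhibitory MAC-0452936 concentration. No CRISPRi induction; only basal 5–10% knockdown.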

E. coli CFT073 = assay: MIC assay with or without SPR741, E. coli CFT073; assay type: cell-based; conditions: Escherichia coli
Protocol: We next sought to determine whether we could achieve growth inhibition of wild-type E. coli using MAC-0452936 and an antibiotic adjuvant. […] To that end, we determined the MIC of MAC-0452936 against wild-type E. coli in the presence and absence of a sub-MIC concentration of SPR741 (Figure S8B). […] We leveraged this combination to characterize the spectrum of activity of MAC-0452936 against a panel of Gram-negative pathogens (Table 2). In the presence of 8 μg/mL SPR741, we observed MAC-0452936 activity against the clinical E. coli isolates C0244 and CFT073 at 2 μg/mL as well as against Salmonella Typhimurium SL1344 at 4 μg/mL.
For MIC assays, cultures of bacteria were grown in LB broth. Overnight cultures were diluted (1:100) into fresh LB media and grown to the mid-log phase of growth (OD600 ∼0.5). Subcultures were then normalized to an OD600 of 0.1, and diluted (1:5000) into assay media. Assay plates were then incubated for 18 h at 37°C, then OD600 was measured using a Biotek Neo plate reader.

COc1ccc(C(=O)O/N=C(\c2cccs2)C(C)(C)C)cc1 [MAC-0452936, (Z)-2-Pivaloylthiophene O-(4-methoxybenzoyl) oxime]
growth defect of the lgt CRISPRi mutant in the presence of compound [1]: considerable growth defect | MIC (E. coli CFT073; CFT073, read-out: MIC, E. coli CFT073 + 8 μg/mL SPR741): 2 µg/mL | MIC (E. coli CFT073; CFT073, read-out: MIC, E. coli CFT073 + 0 μg/mL SPR741): > 64 µg/mL
